Patent publication US20220304946A1 (priority 2021, published 2022)
“Also recorded” adds a separate entry of the source. Where two headings read alike, the source gives them in different places. Where a SMILES comes first, the peptide text is derived from it. Bridges are numbered along the chain shown (N, C = ends). [ ]: non-standard residue; d: D form. The star is where a group is joined. Ileψ(thiazoline)Cys = CC[C@H](C)[C@H](N)C1=N[C@H](C(=O)*)CS1; dOrn = NCCC[C@@H](N)C(=O)O

Columns and labels:
[1] = molecular target: prolyl endopeptidase (PEP) (UniProt P27028); experiment: PEP inhibitory activity assay (modified Yoshimoto et al. method, Z-Gly-Pro-pNA substrate); assay type: biochemical
Procedure: PEP inhibitory activity was evaluated with minor modification of the Yoshimoto et al. method. Briefly, 150 μL of sodium phosphate buffer (50 mM, pH 7.0), and 10 μL of the test compound (0.5 mM in DMSO) were added into a 96-well plate, followed by adding 20 μL solution containing 0.02 units of PEP enzyme. In the Blank reaction, 20 μL of DMSO was added instead of the test compound, while bacitracin (0.5 mM) was used as the positive control. The incubation of the reaction mixture was carried out for 15 min at 30° C. after which a pre-read was taken at 410 nm. Next, 0.4 mM solution of Z-Gly-Pro-pNA was formed in aqueous 1,4-dioxane (40%), followed by taking the optical density (O.D.) of the reaction mixture at a wavelength of 410 nm for 40 min using a 96-well plate reader (SpectraMax-384, Molecular Devices, CA, USA).
Each reaction was repeated thrice and the differences in the results of each experiment were collectively expressed as the standard error of the mean (SEM).
% Inhibition=100−(O.D. test compound/O.D. Control)×100

[2] = molecular target: prolyl endopeptidase (PEP) (UniProt P27028); experiment: Kinetic assay of PEP inhibition (Lineweaver-Burk and Dixon plots); assay type: biochemical
Procedure: That in which way it inhibits the PEP catalytic activity i.e. competitive inhibition, non-competitive inhibition, mixed or uncompetitive inhibition. […] The reaction was started post adding four various concentrations of Z-Gly-Pro-pNA (0.2 mM to 0.5 mM). The PEP enzymatic catalysis was assessed at 410 nm via a 96-well plate reader.
Next, using the obtained O.D. results, the Lineweaver-Burk and Dixon plot was generated.
Grafit version-7 (Erithacus Software Limited, UK) was employed for the Kinetic studies.

Chain of prolyl endopeptidase (PEP) (P27028 whole entry): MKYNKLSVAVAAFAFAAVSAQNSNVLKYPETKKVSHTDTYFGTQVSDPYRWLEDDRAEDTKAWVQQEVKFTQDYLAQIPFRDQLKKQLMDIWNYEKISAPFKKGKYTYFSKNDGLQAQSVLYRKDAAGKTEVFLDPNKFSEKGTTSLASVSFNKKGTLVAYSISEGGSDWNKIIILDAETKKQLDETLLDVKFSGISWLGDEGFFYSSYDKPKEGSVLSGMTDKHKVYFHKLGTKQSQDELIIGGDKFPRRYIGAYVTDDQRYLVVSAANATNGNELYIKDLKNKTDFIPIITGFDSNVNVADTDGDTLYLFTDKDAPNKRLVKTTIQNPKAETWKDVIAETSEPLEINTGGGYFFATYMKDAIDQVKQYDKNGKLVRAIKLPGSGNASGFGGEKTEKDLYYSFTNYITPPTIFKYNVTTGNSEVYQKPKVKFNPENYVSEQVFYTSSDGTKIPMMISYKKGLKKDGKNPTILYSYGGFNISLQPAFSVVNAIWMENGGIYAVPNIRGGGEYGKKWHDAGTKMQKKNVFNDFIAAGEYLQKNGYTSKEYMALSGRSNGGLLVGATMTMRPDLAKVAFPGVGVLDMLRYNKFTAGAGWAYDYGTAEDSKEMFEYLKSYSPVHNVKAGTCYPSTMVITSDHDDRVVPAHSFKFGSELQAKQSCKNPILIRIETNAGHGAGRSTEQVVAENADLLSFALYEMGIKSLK

Structure (SMILES) | IC50 ([1]; mean ± SEM, repeated thrice; 30° C., pH 7.0; read-out: PEP inhibitory activity IC50) [µM] | type of PEP inhibition ([2]; Lineweaver-Burk / Dixon plot) | Ki ([2]; read-out: Ki value, Lineweaver-Burk plot, reconfirmed by Dixon plot) [µM] | IC50 ([1]; read-out: PEP inhibitory activity IC50; mean ± SEM, repeated thrice; 30° C., pH 7.0) [µM]
CC[C@H](C)[C@H](N)C1=N[C@H](C(=O)N[C@@H](CC(C)C)C(=O)N[C@H](CCC(=O)O)C(=O)N[C@H](C(=O)N[C@H]2CCCCNC(=O)[C@H](CC(N)=O)NC(=O)[C@@H](CC(=O)O)NC(=O)[C@H](Cc3cnc[nH]3)NC(=O)[C@@H](Cc3ccccc3)NC(=O)[C@H]([C@@H](C)CC)NC(=O)[C@@H](CCCN)NC2=O)[C@@H](C)CC)CS1 [bacitracin, reference compound] ({Ileψ(thiazoline)Cys}-L[dE]IK[dOrn]I[dF]H[dD]N; lactam 4-C) | 114 ± 1.2 | – | – | –
C/C=C/c1ccc(OC)cc1 [trans-anethole, (E)-1-Methoxy-4-(1-propenyl) benzene] | – | competitively inhibited; also recorded: competitive | 5.656 ± 0.03 | 5.7 ± 1.2
